Biological target: T1, P70S6K (Homo sapiens, UniProt P23443, T412E)
T1 construct: purchased Millipore
Test: P70S6K enzyme assay
Type: biochemical
Conditions: P70S6K T412E mutant 3 nM, 24 μM ATP, FITC-AHA-AKRRRLSSLRA-OH substrate, 90 min at 25° C.; read-out: IC50p70S6K
Procedure: P70S6K inhibitor compounds are diluted and plated in 96 well plates. A reaction mixture including the following components is then added to the compound plate to initiate the enzyme reaction; P70S6K (3 nM, T412E mutant, Millipore) is mixed with 24 μM ATP in an assay buffer containing 100 mM Hepes (pH 7.5), 5 mM MgCl2, 1 mM DTT, 0.015% Brij and 1 μM of the substrate peptide FITC-AHA-AKRRRLSSLRA-OH (derived from the S6 ribosomal protein sequence, FITC=fluorescein isothiocyanate, AHA=6-aminohexanoic acid). The reaction is incubated for 90 min at 25° C., before the addition of 10 mM EDTA to stop the reaction. The proportion of substrate and product (phosphorylated) peptide is analyzed on a Caliper Life Sciences Lab Chip 3000, using a pressure of −1.4 psi, and upstream and downstream voltages of −3000 and −700 respectively. Product peaks are resolved before substrate peaks on the resulting chromatograms.
To assess the inhibitory potential of the compounds, IC50-values were determined, as shown in Chemical Synthesis section above.

T1 sequence (P23443 whole entry T412E): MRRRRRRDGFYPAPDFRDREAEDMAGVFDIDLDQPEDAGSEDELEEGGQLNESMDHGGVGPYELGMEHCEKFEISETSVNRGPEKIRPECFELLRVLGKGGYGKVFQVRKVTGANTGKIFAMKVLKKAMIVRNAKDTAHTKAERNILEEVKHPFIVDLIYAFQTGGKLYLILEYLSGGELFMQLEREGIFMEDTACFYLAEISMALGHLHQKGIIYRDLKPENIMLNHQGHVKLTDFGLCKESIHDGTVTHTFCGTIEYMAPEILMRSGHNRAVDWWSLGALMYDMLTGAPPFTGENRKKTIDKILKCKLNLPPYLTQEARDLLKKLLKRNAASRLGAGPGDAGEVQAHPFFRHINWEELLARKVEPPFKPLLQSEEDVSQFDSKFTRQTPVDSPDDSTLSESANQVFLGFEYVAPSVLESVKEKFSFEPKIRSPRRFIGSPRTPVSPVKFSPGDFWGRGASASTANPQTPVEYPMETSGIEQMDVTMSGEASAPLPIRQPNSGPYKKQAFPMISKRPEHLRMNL

Point of comparison: `Cc1c(F)cccc1[C@H]1CNC[C@@H]1Nc1ncnc2c(C(N)=O)cccc12` (racemic) [compound 92], IC50 2 nM. Against it:
- NC(=O)c1cccc2c(N[C@H]3CNC[C@@H]3c3cccc(F)c3)ncnc12 (racemic) [compound 2, 4-((4-(3-fluorophenyl)pyrrolidin-3-yl)amino)quinazoline-8-carboxamide] — 1.5-fold higher, 3 nM
- NC(=O)c1cccc2c(N[C@H]3CNC[C@@H]3c3ccccc3)ncnc12 (racemic) [compound 3, 4-((4-phenylpyrrolidin-3-yl)amino)quinazoline-8-carboxamide] — 2.5-fold higher, 4.9 nM
- NC(=O)c1cccc2c(NC3CNCC3c3cccc(Cl)c3)ncnc12 (racemic) [compound 9, 4-((4-(3-chlorophenyl)pyrrolidin-3-yl)amino)quinazoline-8-carboxamide] — 1.5-fold lower, 1.3 nM
- NC(=O)c1cccc2c(NC3CNCC3c3c(F)cccc3Cl)ncnc12 (racemic) [compound 10, 4-((4-(2-chloro-6-fluorophenyl)pyrrolidin-3-yl)amino)-quinazoline-8-carboxamide] — 3.5-fold higher, 7 nM
- CN1CC(Nc2ncnc3c(C(N)=O)cccc23)C(c2cccc(F)c2)C1 (racemic) [compound 12, 4-((4-(3-fluorophenyl)-1-methylpyrrolidin-3-yl)amino)quinazoline-8-carboxamide] — 12-fold higher, 23 nM
- Cc1cc(C(N)=O)c2ncnc(NC3CNCC3c3ccccc3)c2c1 (racemic) [compound 15, 6-methyl-4-((4-phenylpyrrolidin-3-yl)amino)quinazoline-8-carboxamide] — 170-fold higher, 349 nM
- Cc1nc(NC2CNCC2c2ccccc2)c2cccc(C(N)=O)c2n1 (racemic) [compound 16, 2-methyl-4-((4-phenylpyrrolidin-3-yl)amino)quinazoline-8-carboxamide] — 3-fold higher, 6 nM
- NC(=O)c1cccc2c(N[C@@H]3CNCC[C@H]3c3ccccc3)ncnc12 (racemic) [compound 27, 4-((4-phenylpiperidin-3-yl)amino)quinazoline-8-carboxamide] — 3.1-fold higher, 6.3 nM
- NC(=O)c1cccc2c(N[C@@H]3CNCC[C@H]3c3cccc(F)c3)ncnc12 (racemic) [compound 28, 4-((4-(3-fluorophenyl)piperidin-3-yl)amino)quinazoline-8-carboxamide] — within 1.5-fold, 1.8 nM
- NC(=O)c1cccc2c(N[C@@H]3CNCC[C@H]3c3cccc(C(F)(F)F)c3)ncnc12 (racemic) [compound 30, 4-((4-(3-(trifluoromethyl)phenyl)piperidin-3-yl)amino)quinazoline-8-carboxamide] — within 1.5-fold, 2.1 nM
- Cc1cccc([C@@H]2CCNC[C@H]2Nc2ncnc3c(C(N)=O)cccc23)c1 (racemic) [compound 31, 4-((4-(m-tolyl)piperidin-3-yl)amino)quinazoline-8-carboxamide] — 1.6-fold higher, 3.1 nM
- NC(=O)c1cccc2c(N[C@@H]3CNCC[C@H]3c3ccc(F)cc3)ncnc12 (racemic) [compound 32, 4-((4-(4-fluorophenyl)piperidin-3-yl)amino)quinazoline-8-carboxamide] — 1.6-fold higher, 3.2 nM
- Cc1ccc(C2CCN(C(=O)OCc3ccccc3)CC2Nc2ncnc3c(C(N)=O)cccc23)cc1F (racemic) [compound 35, Benzyl 3-((8-carbamoylquinazolin-4-yl)amino)-4-(3-fluoro-4-methylphenyl)piperidine-1-carboxylate] — 500-fold higher, 1000 nM
- Cc1nc(N[C@@H]2CNCC[C@H]2c2cccc(F)c2)c2cccc(C(N)=O)c2n1 (racemic) [compound 37, 4-((4-(3-fluorophenyl)piperidin-3-yl)amino)-2-methylquinazoline-8-carboxamide] — within 1.5-fold, 2.5 nM
- CCc1nc(N[C@@H]2CNCC[C@H]2c2cccc(F)c2)c2cccc(C(N)=O)c2n1 (racemic) [compound 38, 2-ethyl-4-((4-(3-fluorophenyl)piperidin-3-yl)amino)quinazoline-8-carboxamide] — within 1.5-fold, 1.7 nM
- CCc1nc(N[C@@H]2CNCC[C@H]2c2ccccc2)c2cccc(C(N)=O)c2n1 (racemic) [compound 39, 2-ethyl-4-((4-phenylpiperidin-3-yl)amino)quinazoline-8-carboxamide] — 2.4-fold higher, 4.8 nM
- Cc1nc(N[C@@H]2CNCC[C@H]2c2ccccc2)c2cccc(C(N)=O)c2n1 (racemic) [compound 40, 2-methyl-4-((4-phenylpiperidin-3-yl)amino)quinazoline-8-carboxamide] — 3.2-fold higher, 6.4 nM
- NC(=O)c1cccc2c(N[C@H]3CNC[C@@H]3c3cc(F)cc(C(F)(F)F)c3)ncnc12 (racemic) [compound 45] — within 1.5-fold, 1.9 nM
- NC(=O)c1cccc2c(N[C@H]3CNC[C@@H]3c3cccc(C(F)(F)F)c3)ncnc12 (racemic) [compound 48] — within 1.5-fold, 1.7 nM
- NC(=O)c1cccc2c(N[C@H]3CNC[C@@H]3c3ccc(C(F)(F)F)cc3)ncnc12 (racemic) [compound 52] — 3.2-fold higher, 6.5 nM
- NC(=O)c1cccc2c(N[C@@H]3CNC[C@@H]3c3cccc(OC(F)(F)F)c3)ncnc12 (racemic) [compound 55] — 4.5-fold higher, 9 nM
- NC(=O)c1cccc2c(N[C@H]3CNC[C@@H]3c3cccc(OC(F)(F)F)c3)ncnc12 (racemic) [compound 56] — within 1.5-fold, 2.4 nM
- NC(=O)c1cccc2c(N[C@H]3CNC[C@@H]3c3ccc(OC(F)(F)F)cc3)ncnc12 (racemic) [compound 59] — within 1.5-fold, 1.7 nM
- NC(=O)c1cccc2c(N[C@H]3CNC[C@@H]3c3ccc4ncccc4c3)ncnc12 (racemic) [compound 69] — 1.6-fold higher, 3.2 nM
- Cc1cc([C@H]2CNC[C@@H]2Nc2ncnc3c(C(N)=O)cccc23)ccc1F (racemic) [compound 74] — 4.4-fold higher, 8.8 nM
- NC(=O)c1cccc2c(N[C@H]3CNC[C@@H]3c3cccc(Br)c3)ncnc12 (racemic) [compound 85] — within 1.5-fold, 1.8 nM
- N#Cc1cccc([C@@H]2CNC[C@@H]2Nc2ncnc3c(C(N)=O)cccc23)c1 (racemic) [compound 86] — 7-fold higher, 14 nM
- NC(=O)c1cccc2c(N[C@H]3CNC[C@@H]3c3ccc4c(c3)CCO4)ncnc12 (racemic) [compound 89] — 1.6-fold higher, 3.2 nM
- Cc1nc(N[C@H]2CNC[C@@H]2c2ccccc2Cl)c2cccc(C(N)=O)c2n1 (racemic) [compound 98] — within 1.5-fold, 2.7 nM
- NC(=O)c1cccc2c(N[C@H]3CNC[C@@H]3c3ccc(Cl)c(F)c3)ncnc12 (racemic) [compound 99] — 23-fold lower, 0.088 nM
- NC(=O)c1cccc2c(N[C@H]3CNC[C@@H]3c3ccc(F)c(Cl)c3)ncnc12 (racemic) [compound 100] — within 1.5-fold, 1.4 nM
- COc1ccc([C@H]2CNC[C@@H]2Nc2ncnc3c(C(N)=O)cccc23)cc1F (racemic) [compound 102] — within 1.5-fold, 2.9 nM
- Cc1nc(N[C@H]2CNC[C@@H]2c2ccc(Cl)c(F)c2)c2cccc(C(N)=O)c2n1 (racemic) [compound 103] — within 1.5-fold, 1.8 nM
- NC(=O)c1cccc2c(N[C@H]3CNC[C@@H]3c3cc(F)c(F)cc3F)ncnc12 (racemic) [compound 105, 4-(((3R,4S)-4-(2,4,5-trifluorophenyl)pyrrolidin-3-yl)amino)quinazoline-8-carboxamide] — 210-fold higher, 420 nM
- CCc1nc(N[C@@H]2CNC[C@H]2c2cccc(F)c2)c2cccc(C(N)=O)c2n1 (racemic) [compound 107] — 2.8-fold higher, 5.5 nM
- NC(=O)c1cccc2c(N[C@@H]3CNC[C@H]3c3cccc(Cl)c3F)ncnc12 (racemic) [compound 109] — within 1.5-fold, 2.1 nM
- NC(=O)c1cccc2c(N[C@H]3CNC[C@@H]3c3ccc4ccccc4c3)ncnc12 (racemic) [compound 110] — within 1.5-fold, 1.54 nM
- CS(=O)(=O)c1ccc([C@H]2CNC[C@@H]2Nc2ncnc3c(C(N)=O)cccc23)cc1 (racemic) [compound 111] — 3.8-fold higher, 7.5 nM
- NC(=O)c1cccc2c(N[C@H]3CNC[C@@H]3c3cc(F)cc(Cl)c3)ncnc12 (racemic) [compound 114] — within 1.5-fold, 1.5 nM
- NC(=O)c1cccc2c(N[C@H]3CNC[C@@H]3c3cccc(F)c3F)ncnc12 (racemic) [compound 116] — 2-fold higher, 4.1 nM
- NC(=O)c1cccc2c(N[C@H]3CNC[C@@H]3c3cccc(N4CCCC4)c3)ncnc12 (racemic) [compound 117, 4-(((3R,4S)-4-(3-(pyrrolidin-1-yl)phenyl)pyrrolidin-3-yl)amino)quinazoline-8-carboxamide] — 3-fold higher, 5.9 nM
- NC(=O)c1cccc2c(N[C@H]3CNC[C@@H]3c3ccc(F)c(-c4cccnc4)c3)ncnc12 (racemic) [compound 119] — 7.5-fold higher, 15 nM
- NC(=O)c1cccc2c(N[C@H]3CNC[C@@H]3c3ccc(-c4ccccc4)c(F)c3)ncnc12 (racemic) [compound 120] — within 1.5-fold, 1.4 nM
- NC(=O)c1cccc2c(N[C@H]3CNC[C@@H]3c3ccc(-c4cccnc4)c(F)c3)ncnc12 (racemic) [compound 121] — 3-fold higher, 6 nM
- NC(=O)c1cccc2c(N[C@@H]3CNCC[C@H]3c3cc(F)cc(F)c3)ncnc12 (racemic) [compound 123] — within 1.5-fold, 2.3 nM
- CN1CC[C@@H](c2ccccc2)[C@H](Nc2ncnc3c(C(N)=O)cccc23)C1 (racemic) [compound 124] — 11-fold higher, 22 nM
- CCc1nc(N[C@@H]2CNCC[C@H]2c2cccc(C(F)(F)F)c2)c2cccc(C(N)=O)c2n1 (racemic) [compound 125] — 1.9-fold higher, 3.9 nM
- COc1cccc([C@@H]2CCNC[C@H]2Nc2nc(C)nc3c(C(N)=O)cccc23)c1 (racemic) [compound 126] — 2.2-fold higher, 4.5 nM
- NC(=O)c1cccc2c(N[C@@H]3CNCC[C@H]3c3ccc(C(F)(F)F)cc3)ncnc12 (racemic) [compound 127] — the same, 2 nM
- Cc1nc(N[C@@H]2CNCC[C@H]2c2ccc(F)cc2)c2cccc(C(N)=O)c2n1 (racemic) [compound 132] — 2.7-fold higher, 5.4 nM

— US10087166B2, “Cyclic amine azaheterocyclic carboxamides” (Merck Patent GmbH, priority 2010, dated 2018)
